According to PubChem BioAssay (NCI):
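Cells were grown in 96-well plates and exposed to each compound for 48 hours at five concentrations; endpoints were interpolated linearly between bracketing concentrations, or set to the highest concentration if not reached. Abbreviation: GI50, concentration required for 50% inhibition of growth. TGI is the concentration that stops growth completely.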

Columns and labels:
Test in all cases: NCI anticancer screen, dose series, 48 h
[1] = test system: A498 renal
[2] = test system: HOP-92 NSCLC
[3] = test system: K-562 leukemia
[4] = test system: LOX IMVI melanoma
[5] = test system: OVCAR-4 ovarian
[6] = test system: SF-268 CNS
[7] = test system: SK-MEL-2 melanoma
[8] = test system: SN12C renal

O=C(O[C@H]1CN[C@H](C#Cc2cc3ncnc(Nc4ccc(Cc5ccccc5)cc4)c3s2)C1)N1CCOCC1
GI50 [1]: 0.768 µM
TGI [1]: 6.53 µM
GI50 [2]: 1.7 µM
TGI [2]: 11.5 µM
GI50 [3]: 8.44 µM
TGI [3]: > 25 µM
GI50 [4]: 4 µM
TGI [4]: 8.03 µM
GI50 [5]: 6.22 µM
TGI [5]: > 25 µM
GI50 [6]: 3.8 µM
TGI [6]: 10.6 µM
GI50 [7]: 5.41 µM
TGI [7]: 14.4 µM
GI50 [8]: 4.08 µM
TGI [8]: > 25 µM

Nc1ccn(C2OC(CO[P+](=O)OC3C(CO[P+](=O)OC4C(CO[P+](=O)OC5C(CO[P+](=O)OC6C(CO[P+](=O)OC7C(CO[P+](=O)OC8C(CO[P+](=O)OC9C(CO[P+](=O)OC%10C(CO[P+](=O)OC%11C(CO)OC(n%12ccc(N)nc%12=O)C%11(F)F)OC(n%11ccc(N)nc%11=O)C%10(F)F)OC(n%10ccc(N)nc%10=O)C9(F)F)OC(n9ccc(N)nc9=O)C8(F)F)OC(n8ccc(N)nc8=O)C7(F)F)OC(n7ccc(N)nc7=O)C6(F)F)OC(n6ccc(N)nc6=O)C5(F)F)OC(n5ccc(N)nc5=O)C4(F)F)OC(n4ccc(N)nc4=O)C3(F)F)C(O)C2(F)F)c(=O)n1 (configuration not stated)
TGI [1]: > 100 µM
GI50 [3]: 2.71 µM
TGI [3]: > 100 µM
TGI [4]: > 100 µM
GI50 [5]: > 100 µM
TGI [5]: > 100 µM
GI50 [7]: 35 µM

COc1ccc(S(=O)(=O)Nc2cc(/C=C\c3cc(OC)c(OC)c(OC)c3)cc(OC)c2OC)cc1OC
GI50 [1]: 0.154 µM
TGI [1]: 0.906 µM
GI50 [2]: 0.207 µM
TGI [2]: 67.5 µM
GI50 [3]: 0.425 µM
TGI [3]: > 100 µM
GI50 [4]: 0.472 µM
TGI [4]: > 100 µM
GI50 [5]: 3.12 µM
TGI [5]: > 100 µM
GI50 [6]: 20.8 µM
TGI [6]: > 100 µM
GI50 [7]: 5.29 µM
TGI [7]: > 100 µM
GI50 [8]: 1.18 µM
TGI [8]: > 100 µM

C=CC[Se]C(=O)c1ccccc1OC(C)=O
GI50 [1]: 0.885 µM
TGI [1]: 5.62 µM
GI50 [2]: 2.28 µM
TGI [2]: 6.12 µM
GI50 [3]: 3.1 µM
TGI [3]: > 100 µM
GI50 [4]: 1.86 µM
TGI [4]: 3.78 µM
GI50 [5]: 1.68 µM
TGI [5]: 3.19 µM
GI50 [6]: 2.49 µM
TGI [6]: 6.5 µM
GI50 [7]: 2.05 µM
TGI [7]: 4.33 µM
GI50 [8]: 1.61 µM
TGI [8]: 3.01 µM

NC(=O)c1ncn(C2OC(CO)C(O)C2O)n1 (configuration not stated)
GI50 [1]: > 100 µM
TGI [1]: > 100 µM
GI50 [2]: > 100 µM
TGI [2]: > 100 µM
GI50 [3]: 51.9 µM
TGI [3]: > 100 µM
GI50 [4]: 53.6 µM
TGI [4]: > 100 µM
GI50 [5]: > 100 µM
TGI [5]: > 100 µM
GI50 [7]: > 100 µM
TGI [7]: > 100 µM
GI50 [8]: 85 µM
TGI [8]: > 100 µM

O=C1OCC2=C1C(c1ccccc1)c1cc3c(cc1N2CCO)CCC3 (configuration not stated)
GI50 [1]: 0.0746 µM
TGI [1]: 0.657 µM
GI50 [3]: 0.0908 µM
TGI [3]: > 25 µM
GI50 [4]: 0.176 µM
TGI [4]: > 25 µM
GI50 [5]: 0.127 µM
TGI [5]: > 25 µM
GI50 [6]: 0.0833 µM
TGI [6]: 1.51 µM
GI50 [7]: 0.0901 µM
TGI [7]: > 8.97 µM
GI50 [8]: 0.172 µM
TGI [8]: > 25 µM

C[CH2][Sn]1([CH2]C)[O]C2C(O)OC(CO)C(O)C2[O]1 (configuration not stated)
GI50 [1]: 18.9 µM
TGI [1]: 42 µM
GI50 [2]: 20 µM
TGI [2]: 47 µM
GI50 [3]: 16.7 µM
TGI [3]: 41.4 µM
GI50 [5]: 14.8 µM
TGI [5]: 36.9 µM
GI50 [6]: 39.4 µM
TGI [6]: > 100 µM
GI50 [7]: 35.5 µM
TGI [7]: > 100 µM
GI50 [8]: 4.55 µM
TGI [8]: 26.5 µM

CCOc1ccc(/C=N/Nc2cc(C)nc3ccc(Cl)cc23)cc1
GI50 [1]: 1.7 µM
TGI [1]: 3.45 µM
GI50 [2]: 2.1 µM
TGI [2]: 7.08 µM
GI50 [3]: 1.36 µM
TGI [3]: 2.98 µM
GI50 [4]: 1.73 µM
TGI [4]: 3.14 µM
GI50 [5]: 1.79 µM
TGI [5]: 3.51 µM
GI50 [6]: 2.05 µM
TGI [6]: 3.9 µM
GI50 [7]: 1.9 µM
TGI [7]: 3.43 µM
GI50 [8]: 1.82 µM
TGI [8]: 3.4 µM

CNC(=O)c1cc(Oc2ccc3nc(NC(=O)c4cc(C(F)(F)F)cc(C(F)(F)F)c4)sc3c2)ccn1
GI50 [1]: 1.45 µM
TGI [1]: 4.51 µM
GI50 [2]: 1.68 µM
TGI [2]: 7.21 µM
GI50 [3]: 3.53 µM
TGI [3]: > 100 µM
GI50 [4]: 3.39 µM
TGI [4]: 15.1 µM
GI50 [5]: 3.12 µM
TGI [5]: 27.2 µM
GI50 [6]: 2.66 µM
TGI [6]: 17 µM
GI50 [7]: 2.32 µM
TGI [7]: 6.7 µM
GI50 [8]: 3.22 µM
TGI [8]: 12.5 µM

N#CC(NC12CC3CC(CC(C3)C1)C2)c1ccccc1 (configuration not stated)
TGI [2]: > 100 µM
TGI [3]: > 100 µM
TGI [4]: > 100 µM
TGI [5]: > 100 µM
TGI [6]: > 100 µM
TGI [7]: > 100 µM
TGI [8]: > 100 µM

C[C@H]1O[C@@H](O[C@H]2[C@@H](O)C[C@H](O[C@H]3[C@@H](O)C[C@H](O[C@H]4CC[C@]5(C)C6C[C@@H](O)[C@]7(C)[C@@H](C8=CC(=O)OC8)CC[C@]7(O)C6CC[C@@H]5C4)O[C@@H]3C)O[C@@H]2C)C[C@H](O)[C@@H]1O (some centres not stated)
GI50 [2]: 0.112 µM
TGI [2]: 0.529 µM
GI50 [3]: 0.117 µM
TGI [3]: 0.413 µM
GI50 [4]: 0.06 µM
TGI [4]: 0.141 µM
GI50 [5]: 0.101 µM
TGI [5]: 0.306 µM
GI50 [6]: 0.0253 µM
TGI [6]: 0.083 µM
GI50 [7]: 0.121 µM
TGI [7]: 0.328 µM
GI50 [8]: 0.0266 µM
TGI [8]: 0.457 µM

N#Cc1cc(-c2ccccc2)[nH]c1-c1nccc2ccccc12
GI50 [1]: 26.3 µM
TGI [1]: > 100 µM
GI50 [3]: 6.04 µM
TGI [3]: > 100 µM
GI50 [4]: 15.6 µM
TGI [4]: > 100 µM
GI50 [5]: 3.43 µM
TGI [5]: > 100 µM
GI50 [6]: 22.6 µM
TGI [6]: > 100 µM
GI50 [7]: 11.9 µM
TGI [7]: 81 µM
GI50 [8]: 23.9 µM
TGI [8]: > 100 µM

Oc1c(Cl)cc(C(c2cc(Cl)c(O)c(Cl)c2)C(c2cc(Cl)c(O)c(Cl)c2)c2cc(Cl)c(O)c(Cl)c2)cc1Cl
GI50 [1]: 10.1 µM
TGI [1]: 26.3 µM
GI50 [2]: 3.44 µM
TGI [2]: 13.6 µM
GI50 [3]: 13.1 µM
TGI [3]: 38 µM
GI50 [5]: 7.11 µM
TGI [5]: 94.4 µM
GI50 [6]: 5.09 µM
GI50 [7]: 2.92 µM
TGI [7]: 7.33 µM
GI50 [8]: 2.41 µM
TGI [8]: 8.99 µM

O=[n+]1cnn([O-])c2ccccc21
TGI [1]: > 100 µM
TGI [3]: > 100 µM
TGI [4]: > 100 µM
TGI [6]: > 100 µM
TGI [7]: 96.2 µM
TGI [8]: > 100 µM

NCC(=O)Nc1ccc(-n2nc(C(F)(F)F)cc2-c2ccc3c(ccc4ccccc43)c2)cc1
GI50 [1]: 1.86 µM
TGI [1]: 3.84 µM
GI50 [2]: 1.27 µM
TGI [2]: 2.65 µM
GI50 [3]: 0.472 µM
TGI [3]: 3.38 µM
GI50 [6]: 1.13 µM
TGI [6]: 2.75 µM
GI50 [7]: 1.82 µM
TGI [7]: 3.48 µM
GI50 [8]: 1.65 µM
TGI [8]: 3.4 µM

Cc1c(NC(=O)CCCl)c(=O)oc2c(C)c3occc(=O)c3cc12
TGI [1]: 76.2 µM
TGI [2]: > 100 µM
TGI [3]: > 100 µM
TGI [5]: > 100 µM
TGI [6]: > 100 µM

CCOC(=O)CC(=O)N(c1ccc(OC)cc1)C(C(=O)OC)c1ccccc1 (configuration not stated)
TGI [3]: > 100 µM
TGI [4]: > 100 µM
TGI [6]: > 100 µM
TGI [7]: > 100 µM
TGI [8]: > 100 µM

COC(=O)C1=C2C3=C(C(=O)c4ccccc4C3=O)N(Cc3ccccc3)C2(OC(C)=O)C=CC1=O (configuration not stated)
GI50 [2]: 0.85 µM
TGI [2]: 19.7 µM
GI50 [3]: 4.69 µM
TGI [3]: > 100 µM
GI50 [5]: 34.4 µM
TGI [5]: > 100 µM
GI50 [6]: 2.86 µM
TGI [6]: 23.6 µM
GI50 [7]: 42.5 µM
TGI [7]: > 100 µM
GI50 [8]: 6.78 µM
TGI [8]: 30.2 µM
